Reference: US20140335396A1, “Microporous Membrane” (ASAHI KASEI E-MATERIALS CORPORATION, priority 2011, published 2014)

Assay: Solubility in water of the surfactant
Assay type: physicochemical
Conditions: water at 25° C.
Protocol: As long as the above-described surfactant adhered to a base membrane includes at least a surfactant (A) soluble in water and a surfactant (B) insoluble in water, the above-described surfactant adhered to a base membrane may also include another surfactant (i.e., a surfactant having a solubility in water of 0.1 g based on 100 g of water to 5 g based on 100 g of water.)
(7) Solubility in Water (g Per 100 g of Water)
Aliquots, each of which is 0.01 g of a surfactant, were added one by one to 100 g of water at 25° C. while stirring. The total amount of the surfactant added (g) when the solution changed from clear to opaque was taken as the degree of the solubility in water

Solubility in water | Compound
≤ 0.1 g per 100 g of water | CCCCCCCC/C=C/CCCCCCCC1=NCCN1CCO [oleyl imidazoline]
≥ 5 g per 100 g of water | polyoxyethylene alkyl ether
